Structures are written as SMILES.

The assay addresses Skeletal Myofibril ATPase (Rabbit Psoas myofibrils). The assay can be described thus: Skeletal Myofibril ATPase Assay. It is filed as biochemical. The note with it: PK/LDH-coupled NADH absorbance at 340 nm. The method, then: Overview: Myosin ATPase activity was assessed by using a coupled reaction system, in which ADP generated by the myosin ATPase function was coupled to the disappearance of NADH through the pyruvate kinase/lactate dehydrogenase (PK-LDH) system. Myosin ATPase activity produces ADP, which was used as a substrate for PK to produce pyruvate and regenerate ATP. The pyruvate was then used as a substrate by LDH to oxidize NADH to NAD+. The rate of the reaction was monitored through the time-dependent disappearance of NADH using absorbance at 340 nm. Inhibition of ATPase activity by the assayed compounds was indicated by a reduced rate of NADH loss, relative to vehicle-treated controls, over the experimental time window. To assess the selectivity of the assayed compounds for skeletal myofibrils, the compounds were counter-screened in cardiac myofibrils.
Materials: The following stock solutions and reagents were used in the Skeletal Myofibril ATPase Assay:
Stock Solutions of pCa buffer. Combine PIPES, CaCl2, and EGTA solutions with 70 mL of water. Adjust pH to 7.0 and bring final volume to 100 mL.
Buffer A & Buffer B. Buffers were stored on ice until use.
Skeletal Myofibril ATPase Assay Procedure: BSA, ATP, NADH, PEP, and DTT solutions were thawed at room temperature, then transferred to ice. Pellet-frozen myofibrils (approximately twice the required volume) were transferred into a sufficiently large tube and capped. Myofibrils were thawed by rolling in a water bath for approximately 15 min at room temperature and cooled on ice. Buffers A and B were prepared by adjusting volumes as necessary for required number of wells and stored on ice. 0.5 μL of the compounds to be assayed were added into wells of a 384-well plate. Buffers A and B were mixed by inversion immediately prior to use, then 25 μL of each was dispensed using a Multidrop dispenser (Buffer A first, then Buffer B). The absorbance within the wells was measured at 340 nm, using a kinetic protocol in which the wells are read every 1.5-2 min for 1 h. The reaction rate was qualitatively assessed by subtracting the minimum absorbance value from the maximum value for each well, using either the SoftMax Pro plate reader software or a spreadsheet program such as Excel. Using GraphPad Prism 8.0, the data was normalized, with 100% activity defined as the absorbance change in the 1% DMSO vehicle wells and 0% assigned to no change in absorbance over the course of the experiment. The normalized data were fit to a variable-slope four-parameter logistic model, constraining the bottom to be 0 or greater. Compounds of Table 1 to 3 were tested and results of the assay appear in Table 4 herein. A=IC50 is less than or equal to 10 μM; B=IC50 is greater than 10 μM and less than 100 μM; C=IC50 is greater than 100 μM.
For the compound `O=C(Cn1nc(-c2cccs2)ccc1=O)Nc1ccccc1Cl` [Compound 37, N-(2-chlorophenyl)-2-(6-oxo-3-(thiophen-2-yl)pyridazin-1(6H)-yl)acetamide], the IC50 (as a rule, the concentration at which inhibition is half-maximal) was 10 to 100 µM. With `Cc1ccc(-c2ccc(=O)n(CC(=O)N(C)c3ccccc3)n2)s1` [Compound 38, N-methyl-2-(3-(5-methylthiophen-2-yl)-6-oxopyridazin-1(6H)-yl)-N -phenylacetamide] the figure was 10 to 100 µM.

Consider `Cc1ccc(-c2ccc(=O)n(CC(=O)NC3CCCC3)n2)s1` [Compound 39, N-cyclopentyl-2-(3-(5-methylthiophen-2-yl)-6-oxopyridazin-1(6H)-yl)acetamide], for which the IC50 lay within 10 to 100 µM. For the compound `COc1ccccc1NC(=O)Cn1nc(-c2cccs2)ccc1=O` [Compound 40, N-(2-methoxypheny1)-2-(6-oxo-3-(thiophen-2-yl)pyridazin-1(6H)-yl)acetamide], the IC50 fell in the range of 10 to 100 µM. With `O=C(Cn1nc(-c2cccs2)ccc1=O)Nc1ccccc1F` [Compound 41, N-(2-fluorophenyl)-2-(6-oxo-3-(thiophen-2-yl)pyridazin-1(6H)-yl)acetamide] the figure was 10 to 100 µM; with `O=C(Cn1nc(-c2cccs2)ccc1=O)Nc1ccc(Cl)cc1Cl` [Compound 42, N-(2,4-dichlorophenyl)-2-(6-oxo-3-(thiophen-2-yl)pyridazin-1(6H)-yl)acetamide], > 100 µM; with `O=C(Cn1nc(-c2cccs2)ccc1=O)Nc1ccccc1` [Compound 43, 2-(6-oxo-3-(thiophen-2-yl)pyridazin-1(6H)-yl)-N-phenylacetamide], > 100 µM. In the case of `Cc1ccc(-c2ccc(=O)n(CC(=O)NC3CCCCC3)n2)s1` [Compound 44, N-cyclohexyl-2-(3-(5-methylthiophen-2-yl)-6-oxopyridazin-1(6H)-yl)acetamide], the concentration for half-maximal inhibition (IC50) is > 100 µM.

For the compound `COc1ccc(NC(=O)Cn2nc(-c3cccs3)ccc2=O)cc1` [Compound 45, N-(4-methoxyphenyl)-2-(6-oxo-3-(thiophen-2-yl)pyridazin-1(6H)-yl)acetamide], the IC50 lay within 10 to 100 µM. Then `O=C(Cn1nc(-c2cccs2)ccc1=O)Nc1ccc2c(c1)OCCO2` [Compound 46, N-(2,3-dihydrobenzo[b][1,4]dioxin-6-yl)-2-(6-oxo-3-(thiophen-2-yl)pyridazin-1(6H)-yl)acetamide], with > 100 µM; and `O=C(Cn1nc(-c2cccs2)ccc1=O)Nc1ccc2c(c1)OCO2` [Compound 47, N-(benzo[d][1,3]dioxol-5-yl)-2-(6-oxo-3-(thiophen-2-yl)pyridazin-1(6H)-yl)acetamide], with > 100 µM; and `O=C(Cn1nc(-c2cccs2)ccc1=O)Nc1ccc2cc[nH]c2c1` [Compound 48, N-(1H-indol-6-yl)-2-(6-oxo-3-(thiophen-2-yl)pyridazin-1(6H)-yl)acetamide], with > 100 µM. With `CC(C)NC(=O)Cn1nc(-c2cccs2)ccc1=O` [Compound 49, N-isopropyl-2-(6-oxo-3-(thiophen-2-yl)pyridazin-1(6H)-yl)acetamide] the figure was > 100 µM; with `CCCNC(=O)Cn1nc(-c2nc(-c3cccnc3)no2)ccc1=O` [Compound 50, 2-(6-oxo-3-(3-(pyridin-3-yl)-1,2,4-oxadiazol-5-yl)pyridazin-1(6H)-yl)-N-propylacetamide], 10 to 100 µM; with `CCCNC(=O)Cn1nc(-c2nc(-c3ccc(Cl)cc3)no2)ccc1=O` [Compound 51, 2-(3-(3-(4-chlorophenyl)-1,2,4-oxadiazol-5-yl)-6-oxopyridazin-1(6H)-yl)-N-propylacetamide], ≤ 10 µM. In turn, `COc1ccc(NC(=O)Cn2nc(-c3ccco3)ccc2=O)c(OC)c1` [Compound 52, N-(2,4-dimethoxyphenyl)-2-(3-(furan-2-yl)-6-oxopyridazin-1(6H)-yl)acetamide] returned an IC50 of 10 to 100 µM.

On to `O=C(Cn1nc(-c2ccco2)ccc1=O)NCc1ccccc1F` [Compound 53, N-(2-fluorobenzyl)-2-(3-(furan-2-yl)-6-oxopyridazin-1(6H)-yl)acetamide], for which the IC50 was > 100 µM. With `Cn1cc(-c2ccc(=O)n(CC(=O)NCc3ccccc3Cl)n2)cn1` [Compound 54, N-(2-chlorobenzyl)-2-(3-(1-methyl-1H-pyrazol-4-yl)-6-oxopyridazin-1(6H)-yl)acetamide] the figure was 10 to 100 µM; with `Cn1cnc(-c2ccc(=O)n(CC(=O)NCc3ccccc3Cl)n2)c1` [Compound 55, N-(2-chlorobenzyl)-2-(3-(1-methyl-1H-imidazol-4-yl)-6-oxopyridazin-1(6H)-yl)acetamide], > 100 µM.

Take `O=c1ccc(-c2cccs2)nn1Cc1cccc(Cl)c1` [Compound 56, 2-(3-chlorobenzyl)-6-(thiophen-2-yl)pyridazin-3(2H)-one]: the IC50 is ≤ 10 µM.

`O=c1ccc(-c2cccs2)nn1Cc1cccc(F)c1` [Compound 57, 2-(3-fluorobenzyl)-6-(thiophen-2-yl)pyridazin-3(2H)-one] returned an IC50 of 10 to 100 µM.

With `O=c1ccc(-c2cccs2)nn1Cc1ccccc1F` [Compound 58, 2-(2-fluorobenzyl)-6-(thiophen-2-yl)pyridazin-3(2H)-one], the half-maximal inhibitory concentration (IC50) was > 100 µM. Then `O=c1ccc(-c2cccs2)nn1Cc1cccc(C(F)(F)F)c1` [Compound 59, 6-(thiophen-2-yl)-2-(3-(trifluoromethyl)benzyl)pyridazin-3(2H)-one], with > 100 µM; and `Cc1ccc(-c2ccc(=O)n(CCOc3cccc(C#N)c3)n2)s1` [Compound 61, 3-(2-(3-(5-methylthiophen-2-yl)-6-oxopyridazin-1(6H)-yl)ethoxy)benzonitrile], with > 100 µM; and `O=c1ccc(-c2cccs2)nn1C/C=C/c1ccccc1` [Compound 62, 2-cinnamyl-6-(thiophen-2-yl)pyridazin-3(2H)-one], with > 100 µM. With `Cc1cc(Cn2nc(-c3nc(-c4cccc(Cl)c4)no3)ccc2=O)on1` [Compound 63, 6-(3-(3-chlorophenyl)-1,2,4-oxadiazol-5-yl)-2-((3-methylisoxazol-5-yl)methyl)pyridazin-3(2H)-one] the figure was ≤ 10 µM; with `O=c1ccc(-c2nc(-c3cccc(Cl)c3)no2)nn1Cc1cncc(F)c1` [Compound 64, 6-(3-(3-chlorophenyl)-1,2,4-oxadiazol-5-yl)-2-((5-fluoropyridin-3-yl)methyl)pyridazin-3(2H)-one], ≤ 10 µM. In the case of `O=c1ccc(-c2nc(-c3cncc(Cl)c3)no2)nn1Cc1cncc(F)c1` [Compound 65, 6-(3-(5-chloropyridin-3-yl)-1,2,4-oxadiazol-5-yl)-2-((5-fluoropyridin-3-yl)methyl)pyridazin-3(2H)-one], the IC50 is ≤ 10 µM. Then `O=c1ccc(-c2nc(-c3cncc(Cl)c3)no2)nn1Cc1ccccc1` [Compound 66, 2-benzyl-6-(3-(5-chloropyridin-3-yl)-1,2,4-oxadiazol-5-yl)pyridazin-3(2H)-one], with ≤ 10 µM. Compound `O=c1ccc(-c2nc(-c3cccnc3)no2)nn1Cc1ccccc1` [Compound 67, 2-benzyl-6-(3-(pyridin-3-yl)-1,2,4-oxadiazol-5-yl)pyridazin-3(2H)-one] yielded an IC50 of 10 to 100 µM. With `O=c1ccc(-c2nc(-c3cccnc3)no2)nn1Cc1ccccc1F` [Compound 68, 2-(2-fluorobenzyl)-6-(3-(pyridin-3-yl)-1,2,4-oxadiazol-5-yl)pyridazin-3(2H)-one] the figure was 10 to 100 µM.

`Cc1noc(-c2ccc(=O)n(Cc3ccc(F)cc3)n2)n1` [Compound 69, 2-(4-fluorobenzyl)-6-(3-methyl-1,2,4-oxadiazol-5-yl)pyridazin-3(2H)-one] had a half-inhibitory concentration (IC50) of 10 to 100 µM.

The compound `Cc1noc(-c2ccc(=O)n(Cc3ccccc3F)n2)n1` [Compound 70, 2-(2-fluorobenzyl)-6-(3-methyl-1,2,4-oxadiazol-5-yl)pyridazin-3(2H)-one] displayed an IC50 of 10 to 100 µM. In the case of `Cc1ccc(-c2noc(-c3ccc(=O)n(Cc4cccc(F)c4)n3)n2)cc1` [Compound 71, 2-(3-fluorobenzyl)-6-(3-(p-tolyl)-1,2,4-oxadiazol-5-yl)pyridazin-3(2H)-one], the IC50 was > 100 µM. Then `Cc1noc(-c2ccc(=O)n(Cc3cccc(F)c3)n2)n1` [Compound 72, 2-(3-fluorobenzyl)-6-(3-methyl-1,2,4-oxadiazol-5-yl)pyridazin-3(2H)-one], with 10 to 100 µM. Then `O=c1ccc(-c2nnc(-c3cccc(Cl)c3)o2)nn1Cc1ccccc1` [Compound 73, 2-benzyl-6-(5-(3-chlorophenyl)-1,3,4-oxadiazol-2-yl)pyridazin-3(2H)-one], with ≤ 10 µM.
